Measured values published in the supplement of paper PMC10307832.

Columns and labels:
Test in all cases: relative viability (nuclei count vs DMSO), 5 days (fraction); higher = more cells survive
QS11 + Olaparib = compound: C1CC2=C(C1)C=C(C=C2)OC3=NC(=C4C(=N3)N(C=N4)CC5=CC=C(C=C5)C6=CC=CC=C6)N[C@@H](CC7=CC=CC=C7)CO [QS11] + O=C(c1cc(Cc2n[nH]c(=O)c3ccccc23)ccc1F)N1CCN(C(=O)C2CC2)CC1 [Olaparib] (partner 8 µM)
Outline: (§1)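 Cells from lung cancer lines were seeded into 1536-well plates and, one day later, dosed by pin tool. Treatments were either a single drug or a fixed dose of an anchor drug with five library-drug doses (not always all listed) in √10 steps. After 5 days, nuclei were stained in a one-step fixation (final 0.05% Triton X-100, 1% formaldehyde, 1 ug/ml Hoechst) and counted on 4× images, and relative viability is the treated-to-vehicle nuclei ratio, as the median of duplicate plates.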

AZ628 + Phenformin = compound: CC1=C(C=C(C=C1)NC(=O)C2=CC(=CC=C2)C(C)(C)C#N)NC3=CC4=C(C=C3)N=CN(C4=O)C [AZ628] + N=C(N)NC(=N)NCCc1ccccc1 [Phenformin] (partner 250 µM)
Outline: as §1

AZ628 + Pemetrexed = compound: CC1=C(C=C(C=C1)NC(=O)C2=CC(=CC=C2)C(C)(C)C#N)NC3=CC4=C(C=C3)N=CN(C4=O)C [AZ628] + Nc1nc2[nH]cc(CCc3ccc(C(=O)N[C@@H](CCC(=O)O)C(=O)O)cc3)c2c(=O)[nH]1 [Pemetrexed] (partner 0.2 µM)
Outline: as §1

AZ628 + Olaparib = compound: CC1=C(C=C(C=C1)NC(=O)C2=CC(=CC=C2)C(C)(C)C#N)NC3=CC4=C(C=C3)N=CN(C4=O)C [AZ628] + O=C(c1cc(Cc2n[nH]c(=O)c3ccccc23)ccc1F)N1CCN(C(=O)C2CC2)CC1 [Olaparib] (partner 8 µM)
Outline: as §1

Cell Line	relative viability (QS11 + Olaparib; first compound 0.08 µM)	relative viability (QS11 + Olaparib; first compound 0.253 µM)	relative viability (QS11 + Olaparib; first compound 0.8 µM)	relative viability (QS11 + Olaparib; first compound 2.53 µM)	relative viability (QS11 + Olaparib; first compound 8 µM)	relative viability (AZ628 + Phenformin; first compound 0.08 µM)	relative viability (AZ628 + Phenformin; first compound 0.253 µM)	relative viability (AZ628 + Phenformin; first compound 0.8 µM)	relative viability (AZ628 + Phenformin; first compound 2.53 µM)	relative viability (AZ628 + Phenformin; first compound 8 µM)	relative viability (AZ628 + Pemetrexed; first compound 0.08 µM)	relative viability (AZ628 + Pemetrexed; first compound 0.253 µM)	relative viability (AZ628 + Pemetrexed; first compound 0.8 µM)	relative viability (AZ628 + Pemetrexed; first compound 2.53 µM)	relative viability (AZ628 + Pemetrexed; first compound 8 µM)	relative viability (AZ628 + Olaparib; first compound 0.08 µM)	relative viability (AZ628 + Olaparib; first compound 0.253 µM)	relative viability (AZ628 + Olaparib; first compound 0.8 µM)	relative viability (AZ628 + Olaparib; first compound 2.53 µM)	relative viability (AZ628 + Olaparib; first compound 8 µM)
NCI-H2085	0.741	0.846	0.773	0.785	0.976	0.83	0.662	0.784	0.636	0.583	0.951	0.971	0.87	0.865	0.772	0.805	0.756	0.895	0.865	0.703
NCI-H2087	0.743	0.743	0.553	0.623	0.644	0.348	0.289	0.246	0.27	0.169	0.671	0.632	0.604	0.501	0.281	0.446	0.491	0.383	0.537	0.181
NCI-H2126	0.874	0.95	0.8	0.799	0.634	0.524	0.542	0.491	0.484	0.545	0.757	0.665	0.586	0.655	0.588	0.932	0.875	0.874	0.935	0.972
NCI-H2170	0.549	0.632	0.539	0.596	0.722	0.447	0.398	0.402	0.41	0.381	0.285	0.259	0.267	0.3	0.266	0.56	0.598	0.607	0.638	0.551
NCI-H2228	0.586	0.663	0.727	0.648	0.993	0.25	0.274	0.252	0.218	0.206	0.348	0.296	0.351	0.355	0.234	0.585	0.583	0.847	0.698	0.541
NCI-H2342	0.352	0.395	0.494	0.479	0.441	0.657	0.469	0.653	0.65	0.646	0.89	0.683	0.761	0.702	0.793	0.447	0.401	0.479	0.449	0.431
NCI-H2347	0.55	0.541	0.544	0.519	0.683	0.267	0.392	0.493	0.324	0.205	0.401	0.415	0.354	0.464	0.321	0.516	0.537	0.506	0.594	0.43
NCI-H2405	0.847	0.803	0.768	0.961	0.83	0.153	0.202	0.229	0.235	0.24	0.839	0.698	0.673	0.632	0.624	0.661	0.792	0.572	0.646	0.555
